Assay results reported in ChEMBL document CHEMBL1201862, “PubChem BioAssay data set” (2004).
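Tested at 5 concentrations; 48 h exposure; 96-well plates; endpoints linearly interpolated, else capped at highest concentration. GI50 marks 50% less growth.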 The source made the active and inactive calls. No stated cut-off is given here; in the data, active = GI50 up to about 1.1 µM and inactive = higher. Where a SMILES comes first, the peptide text is derived from it. Bridges are numbered along the chain shown (N, C = ends). [ ]: non-standard residue; d: D form. The star is where a group is joined. ξ: configuration not given here. X28 = O=C(/C=C/C=C/C=C/C=C/C=C/C(=O)*)NC1=C(O)CCC1=O; NMeA = CN[C@@H](C)C(=O)O; ξF = NC(Cc1ccccc1)C(=O)O; ξA = CC(N)C(=O)O

Columns and labels:
Experiment in all cases: NCI tumour cell line growth inhibition, 48 h
[1] = system: SK-MEL-2
[2] = system: MDA-MB-231
[3] = system: KM12
[4] = system: A498
[5] = system: SN12C
[6] = system: HT-29
[7] = system: UACC-62
[8] = system: ACHN
[9] = system: 786-0
[10] = system: SW-620
[11] = system: SF-539
[12] = system: IGROV-1
[13] = system: TK-10
[14] = system: Hs-578T
[15] = system: PC-3
[16] = system: MOLT-4
[17] = system: SK-MEL-28
[18] = system: HCC 2998
[19] = system: A549
[20] = system: NCI-H522

SMILES | GI50 [1] | GI50 [2] | GI50 [3] | GI50 [4] | GI50 [5] | GI50 [6] | GI50 [7] | GI50 [8] | GI50 [9] | GI50 [10] | GI50 [11] | GI50 [12] | GI50 [13] | GI50 [14] | GI50 [15] | GI50 [16] | GI50 [17] | GI50 [18] | GI50 [19] | GI50 [20]
O=C(c1cccs1)N(C(=O)N1CCC(c2ccccc2)CC1)c1ccccc1 | 13.8 µM (inactive) | > 100 µM (inactive) | 14.4 µM (inactive) | 51.4 µM (inactive) | 62.2 µM (inactive) | 25.4 µM (inactive) | 50.6 µM (inactive) | 63.1 µM (inactive) | > 100 µM (inactive) | 51.5 µM (inactive) | > 100 µM (inactive) | 14.7 µM (inactive) | 67 µM (inactive) | 27.5 µM (inactive) | 0.873 µM (active) | 34.8 µM (inactive) | 43.9 µM (inactive) | – | – | –
C=C(C)C1CC(=O)C(C)=C(O)C1 (stereo not given) | > 100 µM (inactive) | > 100 µM (inactive) | > 100 µM (inactive) | – | > 100 µM (inactive) | > 100 µM (inactive) | > 100 µM (inactive) | > 100 µM (inactive) | > 100 µM (inactive) | > 100 µM (inactive) | > 100 µM (inactive) | > 100 µM (inactive) | > 100 µM (inactive) | > 100 µM (inactive) | > 100 µM (inactive) | > 100 µM (inactive) | > 100 µM (inactive) | > 100 µM (inactive) | > 100 µM (inactive) | > 100 µM (inactive)
CN(CCNC(=S)c1cn(C)c2c1ccc1ccccc12)CCNC(=S)c1cn(C)c2c1ccc1ccccc12 | > 100 µM (inactive) | 38.7 µM (inactive) | 37.1 µM (inactive) | – | 40.9 µM (inactive) | 27.5 µM (inactive) | > 100 µM (inactive) | > 100 µM (inactive) | 53.6 µM (inactive) | > 100 µM (inactive) | 47.6 µM (inactive) | 29.4 µM (inactive) | > 100 µM (inactive) | 69.2 µM (inactive) | 28.6 µM (inactive) | 24.7 µM (inactive) | 64.4 µM (inactive) | 16.6 µM (inactive) | 64.3 µM (inactive) | 51.2 µM (inactive)
OC(c1nc2ccccc2[nH]1)C(O)C(O)C(O)c1nc2ccccc2[nH]1 (stereo not given) | > 100 µM (inactive) | > 100 µM (inactive) | > 100 µM (inactive) | > 100 µM (inactive) | > 100 µM (inactive) | > 100 µM (inactive) | > 100 µM (inactive) | > 100 µM (inactive) | > 100 µM (inactive) | > 100 µM (inactive) | > 100 µM (inactive) | > 100 µM (inactive) | > 100 µM (inactive) | 91.4 µM (inactive) | > 100 µM (inactive) | > 100 µM (inactive) | > 100 µM (inactive) | – | > 100 µM (inactive) | > 100 µM (inactive)
Cc1ccc(S(N)(C(=O)Nc2cccc3ccccc23)[N+](=O)[O-])cc1 (stereo not given) | > 100 µM (inactive) | 36.6 µM (inactive) | > 100 µM (inactive) | > 100 µM (inactive) | > 100 µM (inactive) | > 100 µM (inactive) | > 100 µM (inactive) | – | – | > 100 µM (inactive) | – | > 100 µM (inactive) | 72.4 µM (inactive) | > 100 µM (inactive) | 50.4 µM (inactive) | 29.5 µM (inactive) | > 100 µM (inactive) | > 100 µM (inactive) | – | –
COc1cc(Br)c(CC2C3=C(CCN2C(=O)C2CCC2)CC(=O)CC3)cc1O (stereo not given) | 36.1 µM (inactive) | 26.5 µM (inactive) | 27.2 µM (inactive) | – | 51.3 µM (inactive) | 24.9 µM (inactive) | 15.6 µM (inactive) | 27.5 µM (inactive) | 26.5 µM (inactive) | 34.6 µM (inactive) | 46.2 µM (inactive) | 36.3 µM (inactive) | 30.4 µM (inactive) | 26.1 µM (inactive) | 30.7 µM (inactive) | 26.1 µM (inactive) | 46.7 µM (inactive) | 26.7 µM (inactive) | 61.7 µM (inactive) | 14.5 µM (inactive)
Nc1ccc2[nH]c(C(=O)N3CC(CCl)c4c3cc(N)c3ccccc43)cc2c1 (stereo not given) | < 0.01 µM (active) | < 0.0208 µM (active) | 0.0114 µM (active) | < 0.01 µM (active) | < 0.01 µM (active) | < 0.01 µM (active) | < 0.01 µM (active) | < 0.01 µM (active) | < 0.01 µM (active) | < 0.01 µM (active) | < 0.01 µM (active) | < 0.01 µM (active) | < 0.01 µM (active) | 0.0204 µM (active) | < 0.01 µM (active) | < 0.01 µM (active) | 0.013 µM (active) | < 0.01 µM (active) | < 0.01 µM (active) | –
CC1NC(=O)[C@H](C)N(C)C(=O)[C@@H]2CCCN2C(=O)[C@@H](NC(=O)C(Cc2ccccc2)NC(=O)/C=C/C=C/C=C/C=C/C=C/C(=O)NC2=C(O)CCC2=O)COC(=O)[C@@H]2CCCN2C1=O (stereo not given in full) (X28-[ξF]SP[NMeA][ξA]P; ester 2-C) | > 100 µM (inactive) | 22.7 µM (inactive) | 58.9 µM (inactive) | – | > 100 µM (inactive) | > 100 µM (inactive) | > 100 µM (inactive) | > 100 µM (inactive) | > 100 µM (inactive) | > 100 µM (inactive) | > 100 µM (inactive) | > 100 µM (inactive) | 30.3 µM (inactive) | 59.2 µM (inactive) | > 100 µM (inactive) | – | > 100 µM (inactive) | > 100 µM (inactive) | > 100 µM (inactive) | > 100 µM (inactive)
